Values quoted from earlier work in US20040067963A1, “Methods to prevent or ameliorate trauma-related psychological disorders” (University of Florida, priority 2002, published 2004).

Tests used:
[1] = test system: patients with combat-related PTSD; details: 301 patients, by week 6 of treatment, normal to upper range of usual antidepressant doses
[2] = test system: patients with HRV parameters indicating autonomic dysregulation characteristic of PTSD; details: 16 patients, 20-60 mg of fluoxetine, vs controls
[3] = test system: PTSD in 53 civilians; details: up to 60 mg/day
[4] = test system: outpatients with PTSD; details: 12 week trial, 187 outpatients with PTSD, primarily female victims of sexual assault

Structure (SMILES)	total Treatment Outcome PTSD rating scale score, change from baseline vs placebo [1]	heart rate variability (HRV) [2]	effect on symptom severity vs placebo ([3]; by week 2-4)	effectiveness on most measures, including disability improvement, vs placebo ([3]; by week 12)	efficacy compared with placebo [4]
CNCCC(Oc1ccc(C(F)(F)F)cc1)c1ccccc1 (centres unmarked) [fluoxetine]	statistically significant improvement from baseline	significantly higher HRV than controls	significantly more effect on symptom severity than placebo	more effective on most measures	
CN[C@H]1CC[C@@H](c2ccc(Cl)c(Cl)c2)c2ccccc21 [sertraline]					significant superiority
